In patent US9468209B2, “Method for eradicating weeds with derivatives of 3-acetyl-5-sec-butyl-4-hydroxy-3-pyrrolin-2-one” (priority 2012, dated 2016):

Columns and labels:
Type in all cases: in vivo
[1] = test system: Crofton weed; assay: Needle puncture pathogenic test on slightly wounded leaf of Crofton weed; conditions: Crofton weed leaf, 50 μg/mL, 25° C., natural light
Outline: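 Compounds in a little methanol were diluted with water to 50 μg/mL (5–100 μg/g in a range test) and applied by needle to slightly wounded Crofton weed leaves. Leaves were kept at 25 °C under natural light with six or more replicates, against methanol/water controls. Lesion spot diameter was measured after 24 h.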

[2] = test system: Crofton weed; assay: Needle puncture test on Crofton weed with washes recovered from compound-treated soil; conditions: after soil treatment (3 hours)
Method: Compounds 1, 2, 3, and 40 were dissolved in small amount of methanol and diluted with distilled water to concentration of 50 μg/mL. The solution was sprayed to the soil sample until the soil was wet but not overflows. After standing at room temperature for 3 hours, the soil sample was washed with water and methanol. The wash solution was collected and concentrated. Such process was repeated three times. The concentrated solutions were used for herbicidal activity test using the method of needle puncture on Crofton weed. Methanol water solution and pure water were used as control. The experiment for every sample was repeated six times. The spot diameters were measured with vernier caliper after the plant was kept under natural light at 25° C. for 24 hours (Table 11).

[3] = test system: Crofton weed; assay: Spray on leaves and stems of three-leaf-stage Crofton weed seedlings grown in pots in a greenhouse; design: key: 4: Plant completely dead; 3: Two thirds of the plant stems and leaves dried out; 2: Half of the plant stems and leaves dried out; 1: One third of the plant stems and leaves dried out; 0: No damage at all; conditions: 50 μg/mL spray, assessed two days later
Method: Compounds 1, 2, 3, and 40 were separately dissolved in a small amount of methanol. The solutions were then diluted with distilled water to a concentration of 50 μg/mL. A mixture of methanol and water in the same ratio as the sample solution was also prepared and used as control in the experiment. The solutions were sprayed on leaves and stems of three-leaf-stage Crofton weed seedlings. All the plants were grown in pot in a greenhouse. The leaves were properly wet by the solutions for consistency and the treatment was repeated 3 times. The measurement of the plant damage was calculated by the formula: Damage Index=Σ(damage level×number of plants)×100/4/number of plants in each treatment.

SMILES | Time of Disease spot [1] [h] | Average diameter of spot after 24 h [1] [mm] | Average diameter of the spot after 24 h, H2O wash ([2]; H2O wash) [mm] | Average diameter of the spot after 24 h, Methanol wash ([2]; Methanol wash) [mm] | Damage level [3]
CCCCC1NC(=O)C(C(C)=O)=C1O (centres unmarked) [Compound 14] | 13.8 ± 0.54 | 6.37 ± 0.04 | – | – | –
CCCCCC1NC(=O)C(C(C)=O)=C1O (centres unmarked) [Compound 15] | 9.5 ± 1.26 | 9.61 ± 1.20 | – | – | –
CCCCCCC1NC(=O)C(C(C)=O)=C1O (centres unmarked) [Compound 16] | 13.80 ± 0.54 | 7.61 ± 0.11 | – | – | –
CCCC(Cl)C1NC(=O)C(C(C)=O)=C1O (centres unmarked) [Compound 40] | 11.93 ± 0.66 | 8.10 ± 0.90 | 0.336 ± 0.050 | 0.416 ± 0.024 | 4
CCC(C)C1NC(=O)C(C(=O)CCF)=C1O (centres unmarked) [Compound 44] | 12.0 ± 1.33 | 4.07 ± 0.51 | – | – | –
CCC(C)C1NC(=O)C(C(=O)CCc2cc(Cl)cc(Cl)c2)=C1O (centres unmarked) [Compound 48] | 13.5 ± 2.77 | 4.33 ± 0.54 | – | – | –
CCCC(C#N)C1NC(=O)C(=C(C)O)C1=O (centres unmarked) [Compound 53] | 12.90 ± 0.27 | 7.334 ± 0.845 | – | – | –
